One series concerns U-251. In words: Antiproliferative activity against human U-251MG cells overexpressing DHX33 assessed as inhibition of cell growth measured after 48 hrs by CCK-8 assay. The series is classed as functional, cell-based. The following applies: U-251, 48 h. In general terms: Tetrazolium assays rely on reduction of a dye to a coloured formazan, in cell work by metabolically active cells.

Series [1] can be described thus: Microsomal stability in human liver microsome assessed as intrinsic clearance. The format is ADME. The following applies: liver microsomes, read-out: CLH.
Series [2] has as its system A549. In words: Downregulation of CyclinB2 mRNA expression in human A549 cells by SYBR dye based RT-PCR analysis. The format is functional, cell-based.
Series [3] deals with A549. In words: Downregulation of MCM7 mRNA expression in human A549 cells by SYBR dye based RT-PCR analysis. The series is classed as functional, cell-based.
The subject of series [4] is A549. In words: Downregulation of MCM4 mRNA expression in human A549 cells by SYBR dye based RT-PCR analysis. The format is functional, cell-based.
Series [5] relates to A549. In words: Downregulation of FEN1 mRNA expression in human A549 cells by SYBR dye based RT-PCR analysis. The series is classed as functional, cell-based.
The target of series [6] is T1, Putative pre-mRNA-splicing factor ATP-dependent RNA helicase DHX32 (Homo sapiens, UniProt Q7L7V1).
T1 sequence (Q7L7V1 whole entry): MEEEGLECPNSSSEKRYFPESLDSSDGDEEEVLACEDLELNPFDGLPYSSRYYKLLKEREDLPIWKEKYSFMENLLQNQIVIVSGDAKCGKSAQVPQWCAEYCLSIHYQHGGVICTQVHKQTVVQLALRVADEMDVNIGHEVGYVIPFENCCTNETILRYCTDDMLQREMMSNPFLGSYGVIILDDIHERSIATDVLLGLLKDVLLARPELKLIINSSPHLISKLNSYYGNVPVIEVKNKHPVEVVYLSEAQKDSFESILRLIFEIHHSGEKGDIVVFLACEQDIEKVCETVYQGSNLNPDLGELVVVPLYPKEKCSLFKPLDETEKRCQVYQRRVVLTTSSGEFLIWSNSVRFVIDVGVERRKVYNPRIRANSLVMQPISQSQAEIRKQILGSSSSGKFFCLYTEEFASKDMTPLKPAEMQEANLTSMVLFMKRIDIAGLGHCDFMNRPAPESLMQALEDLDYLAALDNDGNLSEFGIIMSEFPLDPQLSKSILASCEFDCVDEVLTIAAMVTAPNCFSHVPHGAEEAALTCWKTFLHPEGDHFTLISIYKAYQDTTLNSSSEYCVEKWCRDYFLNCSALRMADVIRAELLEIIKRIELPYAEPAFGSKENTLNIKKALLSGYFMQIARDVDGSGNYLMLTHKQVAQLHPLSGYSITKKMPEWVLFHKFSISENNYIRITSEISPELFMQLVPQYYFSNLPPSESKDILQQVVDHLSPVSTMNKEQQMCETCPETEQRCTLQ
In words: Inhibition of N-terminal thioredoxin-tagged human recombinant DHX32 transformed in Escherichia coli BL21(DE3)pLysS cells.

Series [7] addresses T2, ATP-dependent RNA helicase DHX33 (Mus musculus, UniProt Q80VY9).
T2 sequence (Q80VY9 whole entry): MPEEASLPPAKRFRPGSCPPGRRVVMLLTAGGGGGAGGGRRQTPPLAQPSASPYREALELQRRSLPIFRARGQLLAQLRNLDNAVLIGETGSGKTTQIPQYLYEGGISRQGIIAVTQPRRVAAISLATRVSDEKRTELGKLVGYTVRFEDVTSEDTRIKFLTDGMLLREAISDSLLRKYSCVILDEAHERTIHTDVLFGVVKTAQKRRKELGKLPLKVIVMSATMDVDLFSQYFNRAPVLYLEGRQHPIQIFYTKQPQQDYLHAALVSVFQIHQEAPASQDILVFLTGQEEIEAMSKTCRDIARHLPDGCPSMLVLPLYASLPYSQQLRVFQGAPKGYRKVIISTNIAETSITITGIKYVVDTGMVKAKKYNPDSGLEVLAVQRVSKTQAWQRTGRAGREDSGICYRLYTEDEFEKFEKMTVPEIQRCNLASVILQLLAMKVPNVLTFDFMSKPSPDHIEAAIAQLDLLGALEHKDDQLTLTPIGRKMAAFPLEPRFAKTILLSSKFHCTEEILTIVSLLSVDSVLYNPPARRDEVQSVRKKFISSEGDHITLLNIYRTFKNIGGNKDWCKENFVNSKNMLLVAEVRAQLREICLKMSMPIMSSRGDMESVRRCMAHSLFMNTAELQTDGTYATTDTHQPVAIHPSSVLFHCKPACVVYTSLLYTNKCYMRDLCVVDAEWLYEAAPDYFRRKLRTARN
In words: Inhibition of N-terminal/C-terminal 6x His-tagged wild type recombinant mouse DHX33 transformed in Escherichia coli BL21(DE3)pLysS cells.

In series [8] the test system is A549. In words: Downregulation of E2F1 mRNA expression in human A549 cells by SYBR dye based RT-PCR analysis. The series is classed as functional, cell-based.
Series [9] deals with A549. In words: Downregulation of CyclinE2 mRNA expression in human A549 cells by SYBR dye based RT-PCR analysis. The series is classed as functional, cell-based.
Series [10] relates to A549. In words: Downregulation of MCM3 mRNA expression in human A549 cells by SYBR dye based RT-PCR analysis. The format is functional, cell-based.
For series [11], the target named is T3, Probable ATP-dependent RNA helicase DDX59 (Homo sapiens, UniProt Q5T1V6).
T3 sequence (Q5T1V6 whole entry): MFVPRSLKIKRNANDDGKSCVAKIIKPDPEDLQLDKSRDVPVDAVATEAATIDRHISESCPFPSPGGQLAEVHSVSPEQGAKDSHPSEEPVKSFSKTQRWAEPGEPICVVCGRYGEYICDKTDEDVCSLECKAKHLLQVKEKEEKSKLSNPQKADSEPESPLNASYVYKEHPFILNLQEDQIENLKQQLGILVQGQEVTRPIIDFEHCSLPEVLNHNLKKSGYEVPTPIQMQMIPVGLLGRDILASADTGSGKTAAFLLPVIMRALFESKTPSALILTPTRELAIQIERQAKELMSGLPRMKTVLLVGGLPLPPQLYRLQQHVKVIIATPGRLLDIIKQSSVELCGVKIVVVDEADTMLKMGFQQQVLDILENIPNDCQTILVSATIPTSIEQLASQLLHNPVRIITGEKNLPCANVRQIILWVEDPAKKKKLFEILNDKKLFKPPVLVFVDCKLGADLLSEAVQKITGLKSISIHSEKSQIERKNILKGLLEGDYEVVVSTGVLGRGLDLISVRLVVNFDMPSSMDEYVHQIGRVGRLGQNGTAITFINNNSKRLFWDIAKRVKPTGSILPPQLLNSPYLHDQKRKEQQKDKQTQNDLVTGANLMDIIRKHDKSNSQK
Description: Inhibition of C-terminal 6xHis-tagged human recombinant DDX59 transformed in Escherichia coli BL21(DE3)pLysS cells.

In series [12] the test system is A549. In words: Downregulation of MCM2 mRNA expression in human A549 cells by SYBR dye based RT-PCR analysis. The format is functional, cell-based.
Series [13] deals with T4, Probable ATP-dependent RNA helicase DDX6 (Homo sapiens, UniProt P26196).
T4 sequence (P26196 whole entry): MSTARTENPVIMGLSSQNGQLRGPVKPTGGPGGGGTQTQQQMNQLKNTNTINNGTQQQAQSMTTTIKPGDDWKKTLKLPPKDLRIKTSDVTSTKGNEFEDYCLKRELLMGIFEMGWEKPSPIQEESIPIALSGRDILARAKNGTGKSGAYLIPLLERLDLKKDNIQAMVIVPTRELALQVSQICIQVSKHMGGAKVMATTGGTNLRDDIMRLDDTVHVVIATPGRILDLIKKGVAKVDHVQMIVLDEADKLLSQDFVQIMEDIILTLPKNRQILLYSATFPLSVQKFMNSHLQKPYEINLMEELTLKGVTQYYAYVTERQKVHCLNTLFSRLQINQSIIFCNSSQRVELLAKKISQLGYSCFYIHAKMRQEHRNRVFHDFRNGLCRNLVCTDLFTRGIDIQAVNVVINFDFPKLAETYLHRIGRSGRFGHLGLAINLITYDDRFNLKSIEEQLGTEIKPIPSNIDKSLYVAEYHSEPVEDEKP
In words: Inhibition of N-terminal thioredoxin-tagged human recombinant DDX6 transformed in Escherichia coli BL21(DE3)pLysS cells.

Active and inactive are the calls of the source. The calls are words filed in the database; no cut-off is given here.

A word on the IC50: it is the midpoint of a concentration-inhibition curve. Take `COc1cc2nc(/C(C#N)=C/c3cc(C)n(-c4oc(C)c(C)c4C#N)c3C)[nH]c2cn1`: the half-maximal inhibitory concentration (IC50) in the series with U-251 worked out at 70 nM.

As to `Cc1oc(-n2c(C)cc(/C=C(\C#N)c3nc4ccc(F)cc4[nH]3)c2C)c(C#N)c1C`, the half-maximal inhibitory concentration (IC50) in the series on U-251 was 3200 nM.

For the compound `COc1cc2nc(/C(C#N)=C/c3cc(C)n(-c4sc(C)cc4C(N)=O)c3C)[nH]c2cn1`, the half-maximal inhibitory concentration (IC50) with U-251 was found to be 180 nM. In addition, the CLint scaled in series [1] was 140 mL/min/kg.

With `COc1nccc2nc(/C(C#N)=C/c3cc(C)n(-c4sc(C)c(C)c4C#N)c3C)[nH]c12`, the half-maximal inhibitory concentration (IC50) in the series with U-251 is 3970 nM.

For the compound `COc1cc2nc(/C(C#N)=C/c3cc(C)n(-c4oc(C)c(C)c4C#N)c3C)[nH]c2cc1OC`, in the series on U-251, the IC50 was 1540 nM.

`COc1cc2nc(/C(C#N)=C/c3cc(C)n(-c4sc(C)cc4C#N)c3C)[nH]c2cn1`: in the series on U-251, the IC50 worked out at 20 nM. The CLint scaled in series [1] is 187 mL/min/kg.

Regarding `COc1ccc2nc(/C(C#N)=C/c3cc(C)n(-c4sc(C)cc4C#N)c3C)[nH]c2c1`, the IC50 in the series with U-251 was found to be 110 nM. Besides, the CLint scaled in [1] was found to be 290 mL/min/kg.

Consider `COc1cc2nc(/C(C#N)=C/c3cc(C)n(-c4sc(C)c(C)c4C#N)c3C)[nH]c2cn1`, for which the half-maximal inhibitory concentration (IC50) with U-251 was 30 nM.

Turning to `Cc1ccc2nc(/C(C#N)=C/c3cc(C)n(-c4oc(C)c(C)c4C#N)c3C)[nH]c2c1`, in the series with U-251, the IC50 came to 2440 nM.

As for `COc1ccc2nc(NC(=O)c3cc(C)n(-c4oc(C)nc4C#N)c3C)[nH]c2c1`, the 50% inhibitory concentration (IC50) with U-251 came to 70 nM.

`COc1ccc2nc(/C(C#N)=C/c3cc(C)n(-c4oc(C)c(C)c4C#N)c3C)[nH]c2c1`: in the series on U-251, the IC50 is 540 nM.

Turning to `COc1cccc2nc(/C(C#N)=C/c3cc(C)n(-c4oc(C)c(C)c4C#N)c3C)[nH]c12`, in the series with U-251, the IC50 was greater than 10000 nM.

With `COc1cncc2nc(/C(C#N)=C/c3cc(C)n(-c4sc(C)c(C)c4C#N)c3C)[nH]c12`, the half-inhibitory concentration (IC50) in the series with U-251 was 4680 nM.

As to `COc1ccc2nc(/C(C#N)=C/c3cc(C)n(-c4oc(C)c(C)c4C#N)c3C)[nH]c2n1`, in the series with U-251, the concentration for half-maximal inhibition (IC50) was determined as 4080 nM.

Take `Cc1oc(-n2c(C)cc(/C=C(\C#N)c3nc4ccccc4[nH]3)c2C)c(C#N)c1C`: the result in the series on A549 [2], with A549 [3], with A549 [4], with A549 [5], with A549 [8] and in the series with A549 [9] was Active. Besides, the outcome in the series with A549 [10] and in the series with A549 [12] was Active. In addition, the 50% inhibitory concentration (IC50) is 7820 nM in the series on U-251; greater than 5000 nM in series [6]; 520 nM in series [7]; greater than 5000 nM in [11]; greater than 4000 nM in [13].

For the origin of these results see ChEMBL document CHEMBL5390231, “Development of small molecule inhibitors targeting RNA helicase DHX33 as anti-cancer agents” (Bioorg Med Chem Lett, 2023).
